# Measurements published in patent US20140179681A1, “METHODS AND COMPOSITIONS OF TARGETED DRUG DEVELOPMENT” (priority 2010, published 2014).
# Like-named read-outs stand apart in the source and are kept apart here.
# Legend:
# EGFR = molecular target: T1, EGFR (Homo sapiens, UniProt P00533); assay: EGFR in-cell Western (ICW) screening protocol (EGFR inhibition assay); type: cell-based; settings: for ICW assay: Table 10, % Inhibition of EGF dependent EGFR phosphorylation in A431 cells, compound 125 μM in assay
# T1 construct: host or cells: A431
# Summary of the method: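 Serum-starved A431 cells (2 h) were pretreated with compound for 4 h at 37° C, then stimulated with EGF (10 ng/ml final, or 6.6 or 12.5 ng/ml in some runs) for 10 min. After formaldehyde fixation, phospho-EGFR (Tyr1173, or Tyr1045 in some runs) and total EGFR were detected by in-cell Western immunostaining.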
# [1] = test system: epithelial carcinoma A431 cell line; assay: MTT Cell Proliferation Assay, A431 cells; type: cell-based
# Summary of the method: (§1)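 Viability was measured by mitochondrial MTT reduction after cells were exposed to compound for 3 days in reduced-serum medium. Inhibition was calculated per plate against 0.5% DMSO controls.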
# MDBK line = assay: MTT Cell Proliferation Assay, MDBK cells; type: cell-based, bovine
# Summary of the method: as §1
# [2] = Homo sapiens, A-431, 72 h, Table 10, first of x/y(ratio): A431, three day treatment, unit not printed (doses in μM), read-out: MTT assay (first value)
# [3] = Bos taurus, MDBK, 72 h, Table 10, second of x/y(ratio): MDBK, three day treatment, unit not printed (doses in μM), read-out: MTT assay (second value)
# [4] = Table 10, second of x/y(ratio): MDBK, three day treatment, unit not printed (doses in μM), read-out: MTT assay (second value)
# [5] = Homo sapiens, A-431, first value of 'a/b (c)', taken as A431 cells, read-out: MTT Screen, first value of cell
# [6] = Bos taurus, MDBK, second value of 'a/b (c)', taken as MDBK cells, read-out: MTT Screen, second value of cell
# [7] = second value of 'a/b (c)', taken as MDBK cells
# [8] = first value of 'a/b (c)', taken as A431 cells, read-out: MTT Screen, first value of cell
# [9] = second value of 'a/b (c)', taken as MDBK cells, read-out: MTT Screen, second value of cell
# T1 sequence (P00533 25-1210): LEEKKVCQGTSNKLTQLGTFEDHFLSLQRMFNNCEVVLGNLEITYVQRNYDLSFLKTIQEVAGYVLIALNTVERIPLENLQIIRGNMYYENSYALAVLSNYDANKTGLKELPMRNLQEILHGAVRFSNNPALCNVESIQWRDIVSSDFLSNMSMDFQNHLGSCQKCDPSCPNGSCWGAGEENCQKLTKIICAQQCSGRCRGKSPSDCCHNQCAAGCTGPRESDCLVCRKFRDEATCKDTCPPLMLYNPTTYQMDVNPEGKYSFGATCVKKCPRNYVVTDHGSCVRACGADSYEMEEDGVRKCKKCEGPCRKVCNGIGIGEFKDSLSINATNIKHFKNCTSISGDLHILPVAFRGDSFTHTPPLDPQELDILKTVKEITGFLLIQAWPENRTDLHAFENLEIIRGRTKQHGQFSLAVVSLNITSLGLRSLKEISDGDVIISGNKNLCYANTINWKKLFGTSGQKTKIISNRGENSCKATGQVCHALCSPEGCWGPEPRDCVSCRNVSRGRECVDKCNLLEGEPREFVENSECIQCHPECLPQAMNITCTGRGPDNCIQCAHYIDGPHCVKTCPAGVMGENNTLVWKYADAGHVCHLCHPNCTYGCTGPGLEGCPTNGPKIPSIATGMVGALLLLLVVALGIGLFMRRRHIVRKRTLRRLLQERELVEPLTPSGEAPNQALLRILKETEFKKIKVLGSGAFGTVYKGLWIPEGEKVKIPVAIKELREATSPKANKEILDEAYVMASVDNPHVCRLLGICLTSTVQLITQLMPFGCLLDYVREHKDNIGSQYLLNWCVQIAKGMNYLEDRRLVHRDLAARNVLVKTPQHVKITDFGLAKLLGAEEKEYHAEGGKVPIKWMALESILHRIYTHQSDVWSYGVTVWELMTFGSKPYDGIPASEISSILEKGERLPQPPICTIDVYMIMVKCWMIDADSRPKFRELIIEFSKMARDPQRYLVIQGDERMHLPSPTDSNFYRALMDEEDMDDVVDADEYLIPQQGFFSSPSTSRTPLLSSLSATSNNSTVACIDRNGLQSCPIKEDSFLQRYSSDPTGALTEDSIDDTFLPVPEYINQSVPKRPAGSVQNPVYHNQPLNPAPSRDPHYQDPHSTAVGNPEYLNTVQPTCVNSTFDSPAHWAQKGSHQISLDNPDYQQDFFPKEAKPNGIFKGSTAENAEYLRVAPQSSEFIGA
SMILES,ICW Screen (ICW Inhibition) (EGFR),"IC50 [1, 5]",IC50 (MDBK line; [6]),other results
Cc1cc(C)c(NS(=O)(=O)c2ccc(NC(=S)Nc3ccc(S(C)(=O)=O)cc3)cc2)c(C)c1 [AD4-11427],–,–,–,"ICW assay (EGFR): 44.904; IC50 [1, 2]: 12 µM; IC50 (MDBK line; [3]): 14.5 µM"
COc1ccc(NC(=S)Nc2ccc(S(=O)(=O)Nc3c(C)cc(C)cc3C)cc2)cc1OC [AD4-11428],–,–,–,"ICW assay (EGFR): 29.8673; IC50 [1, 2]: 20.8 µM; IC50 (MDBK line; [3]): 15.5 µM"
CCN(c1ccccc1)S(=O)(=O)c1ccc(NC(=S)Nc2ccccc2)cc1 [AD4-11430],–,–,–,"ICW assay (EGFR): 27.1482; IC50 [1, 2]: 19.8 µM; IC50 (MDBK line; [4]): 16.8 µM"
COc1ccc(NC(=S)Nc2ccc(S(=O)(=O)Nc3ccc(Cl)c(Cl)c3)cc2)cc1OC [AD4-11432],–,–,–,"ICW assay (EGFR): 47.0006; IC50 ([1]; Table 10, first of x/y(ratio): A431, three day treatment, unit not printed (doses in μM), read-out: MTT assay (first value)): 7.8 µM; IC50 (MDBK line; [4]): 7.82 µM"
CC(C)NS(=O)(=O)c1ccc(NC(=S)NC(=O)CCCCCOc2ccc(Cl)cc2Cl)cc1 [AD4-11538],34.978,5.48 µM,5.19 µM,–
CCc1nnc(NS(=O)(=O)c2ccc(NC(=S)NC(=O)/C=C/c3ccc(OC)cc3)cc2)s1 [AD4-11637],33.491,–,17.8 µM,"MTT Screen, first value of cell ([1]; first value of 'a/b (c)', taken as A431 cells): non- conver- gent"
COc1cc(NS(=O)(=O)c2ccc(NC(=S)NC(=O)/C=C/c3ccc(C(C)C)cc3)cc2)nc(OC)n1 [AD4-11638],68.754,11.2 µM,14.9 µM,–
Cc1cc(C)nc(NS(=O)(=O)c2ccc(NC(=S)NC(=O)/C=C/c3ccc(C(C)C)cc3)cc2)n1 [AD4-11642],40.922,9.89 µM,9.46 µM,–
COc1ccc(/C=C/C(=O)NC(=S)Nc2ccc(S(=O)(=O)Nc3cc(OC)nc(OC)n3)cc2)cc1 [AD4-11645],66.452,45.6 µM,47 µM,–
COc1ccc(/C=C/C(=O)NC(=S)Nc2ccc(S(=O)(=O)Nc3nc(C)cc(C)n3)cc2)cc1 [AD4-11646],37.949,19.4 µM,21.1 µM,–
Cc1cc(C)nc(NS(=O)(=O)c2ccc(NC(=S)NC(=O)/C=C/c3ccc(Cl)cc3)cc2)n1 [AD4-11648],38.362,46.7 µM,45.1 µM,–
COc1ccc(/C=C/C(=O)NC(=S)Nc2ccc(S(=O)(=O)Nc3cc(C)on3)cc2)cc1 [AD4-11867],32.432,51 µM,48.1 µM,–
COc1cc(NS(=O)(=O)c2ccc(NC(=S)NC(=O)/C=C/c3ccco3)cc2)ncn1 [AD4-11870],30.849,55.1 µM,47.3 µM,–
Cc1cc(C)nc(NS(=O)(=O)c2ccc(NC(=S)NC(=O)/C=C/c3ccc(F)cc3)cc2)n1 [AD4-11871],45.776,49.7 µM,41.8 µM,–
COc1cc(NS(=O)(=O)c2ccc(NC(=S)NC(=O)/C=C/c3ccc(C)cc3)cc2)nc(OC)n1 [AD4-11874],32.474,35 µM,39 µM,–
CCc1nnc(NS(=O)(=O)c2ccc(NC(=S)NC(=O)/C=C/c3cccs3)cc2)s1 [AD4-11880],37.604,47.3 µM,47.3 µM,–
COc1cc(NS(=O)(=O)c2ccc(NC(=S)NC(=O)/C=C/c3cccs3)cc2)nc(OC)n1 [AD4-11881],34.08,63.3 µM,46.5 µM,–
COc1ccc(/C=C/C(=O)NC(=S)Nc2ccc(S(=O)(=O)Nc3nc(C)cc(C)n3)cc2)cc1OC [AD4-11883],83.13,19.5 µM,–,"MTT Screen, second value of cell (MDBK line; [7]): non- conver- gent"
Cc1cc(NS(=O)(=O)c2ccc(NC(=S)NC(=O)/C=C/c3ccccc3)cc2)no1 [AD4-11885],32.38,–,–,"IC50 [1, 8]: 37.8 µM; IC50 (MDBK line; [9]): 48.3 µM"
Cc1ccc(NS(=O)(=O)c2ccc(NC(=S)NC(=O)C(C)(C)C)cc2)c(C)c1 [AD4-11968],45.095,6.49 µM,6.29 µM,–
COc1ccc(NS(=O)(=O)c2ccc(NC(=S)NC(=O)C(C)C)cc2)cc1 [AD4-11971],44.908,41.5 µM,41.1 µM,–
CC(C)CC(=O)NC(=S)Nc1ccc(S(=O)(=O)Nc2ccccc2)cc1 [AD4-11975],75.826,17.5 µM,17.2 µM,–
CC1CCN(S(=O)(=O)c2ccc(NC(=S)NC(=O)C(C)C)cc2)CC1 [AD4-11977],33.588,32.5 µM,–,"MTT Screen, second value of cell (MDBK line; [7]): non- conver- gent"

SMILES,ICW Screen (ICW Inhibition) (EGFR),"IC50 [1, 5]",IC50 (MDBK line; [6]),other results
C=CCN(CC=C)S(=O)(=O)c1ccc(NC(=S)NC(=O)/C=C/c2cccs2)cc1 [AD4-11979],39.775,9.31 µM,16.2 µM,–
CCOC(=O)CCC(=O)NC(=S)Nc1ccc(S(=O)(=O)Nc2cc(OC)nc(OC)n2)cc1 [AD4-11980],25.235,49.8 µM,24.4 µM,–
CC(C)C(=O)NC(=S)Nc1ccc(S(=O)(=O)NC2CCCCC2)cc1 [AD4-11985],40.346,62.5 µM,39.9 µM,–
Cc1ccc(NS(=O)(=O)c2ccc(NC(=S)NC(=O)C(C)C)cc2)cc1C [AD4-12003],32.007,11.5 µM,12.8 µM,–
Cc1ccc(NS(=O)(=O)c2ccc(NC(=S)NC(=O)CC(C)C)cc2)c(C)c1 [AD4-12010],33.772,6.68 µM,6.16 µM,–
C=CCN(CC=C)S(=O)(=O)c1ccc(NC(=S)NC(=O)/C=C/c2ccc(OC)cc2)cc1 [AD4-12016],34.399,15.8 µM,23.5 µM,–
Cc1cc(C)cc(NS(=O)(=O)c2ccc(NC(=S)NC(=O)CC(C)C)cc2)c1 [AD4-12017],27.373,6.53 µM,5.93 µM,–
Cc1ccc(NS(=O)(=O)c2ccc(NC(=S)NC(=O)CC(C)C)cc2)cc1C [AD4-12024],31.244,6.77 µM,6.34 µM,–
CCC(c1ccccc1)S(=O)(=O)c1ccc(NC(=S)NC(=O)C(C)C)cc1 (centres unmarked) [AD4-12029],30.376,25.3 µM,51.1 µM,–
COc1ccc(NS(=O)(=O)c2ccc(NC(=S)NC(=O)CC(C)C)cc2)cc1 [AD4-12040],47.822,17.1 µM,14.8 µM,–
CC(C)CC(=O)NC(=S)Nc1ccc(S(=O)(=O)NC2CCCCC2)cc1 [AD4-12041],43.515,6.61 µM,14.3 µM,–
O=C(NC(=S)Nc1ccc(S(=O)(=O)Nc2ccccc2)cc1)C1CCC1 [AD4-12044],34.334,63.2 µM,33.1 µM,–
CCN(CC)S(=O)(=O)c1ccc(NC(=S)NC(=O)CC(C)C)cc1 [AD4-12049],36.966,32.3 µM,12 µM,–
CN1CCN(S(=O)(=O)c2ccc(NC(=S)NC(=O)/C=C/c3ccccc3Cl)cc2)CC1 [AD4-12059],28.33,32.2 µM,37.7 µM,–
CN1CCN(S(=O)(=O)c2ccc(NC(=S)NC(=O)/C=C/c3cccs3)cc2)CC1 [AD4-12060],34.272,48.5 µM,40.5 µM,–
Cc1ccc(NS(=O)(=O)c2ccc(NC(=S)NC(=O)C(C)C)cc2)c(C)c1 [AD4-12062],34.268,64.5 µM,18.8 µM,–
O=C(NC(=S)Nc1ccc(S(=O)(=O)N2CCCCC2)cc1)C1CCC1 [AD4-12064],34.778,–,–,"IC50 [1, 8]: 47.8 µM; IC50 (MDBK line; [9]): 42.7 µM"
Cc1ccccc1OCC(=O)NC(=S)Nc1ccc(S(=O)(=O)NC2CCCCC2)cc1 [AD4-12073],29.313,19.5 µM,32.3 µM,"IC50 [1, 8]: 11.6 µM; IC50 (MDBK line; [9]): 17 µM"
O=C(Cc1ccccc1)NC(=S)Nc1ccc(S(=O)(=O)Nc2ccccc2)cc1 [AD4-12074],29.545,16.2 µM,–,IC50 (MDBK line; [9]): 32.3 µM
O=C(COc1ccc(Cl)cc1Cl)NC(=S)Nc1ccc(S(=O)(=O)NC2CCCCC2)cc1 [AD4-12075],25.956,19.2 µM,40.1 µM,–
Cc1ccc(NS(=O)(=O)c2ccc(NC(=S)NC(=O)C3CC3)cc2)c(C)c1 [AD4-12097],48.543,15.1 µM,9.85 µM,–
O=C(NC(=S)Nc1ccc(S(=O)(=O)Nc2ccccc2)cc1)C1CC1 [AD4-12098],25.946,23.4 µM,16.4 µM,–
O=C(NC(=S)Nc1ccc(S(=O)(=O)N2CCCCCC2)cc1)C1CCC1 [AD4-12104],41.204,39 µM,37.6 µM,–
